In DBAASP:
Values after ≈ are worked out from the molar mass of the structure shown. Values belong to the compound of their own block, whether it stands above or below them.

Experiments:
Experiment in all cases: ≥ marks a high value that may be exact or a test limit, other limits are often not marked, values filed in µg/mL are converted to µM
[1] = system: Streptococcus mutans UA159
[2] = system: Streptococcus sanguinis NY101
[3] = system: Streptococcus mutans comD
[4] = system: Streptococcus gordonii DL1
[5] = system: Streptococcus gordonii Challis DL1
Escherichia coli W3110 = system: Escherichia coli W3110
Enterococcus faecalis = system: Enterococcus faecalis
[6] = system: Pseudomonas aeruginosa PAK
[7] = system: Streptococcus sobrinus ATCC 33478
[8] = system: Streptococcus mitis ATCC 903
Staphylococcus aureus = system: Staphylococcus aureus
[9] = system: Escherichia coli PCM 2057
[10] = system: Micrococcus luteus ATCC 4698
[11] = system: Bacillus subtilis KCTC 3068
Enterococcus sp. = system: Enterococcus sp.
[12] = system: Candida albicans KCTC 7965
[13] = system: Escherichia coli K-12 594
[14] = system: Micrococcus luteus KCTC 3063
[15] = system: Staphylococcus aureus KCTC 1928
[16] = system: Candida tropicalis KCTC 1925
[17] = system: Escherichia coli ATCC 25922
[18] = system: Staphylococcus aureus ATCC 25923
[19] = system: Pseudomonas aeruginosa ATCC 27853
Streptococcus agalactiae = system: Streptococcus agalactiae
[20] = system: Acinetobacter calcoaceticus
[21] = system: Pseudomonas aeruginosa wt
Candida albicans = system: Candida albicans
[22] = system: Enterococcus faecalis ATCC 29212
Pseudomonas aeruginosa = system: Pseudomonas aeruginosa
[23] = system: Lactococcus lactis subsp. cremoris I116
[24] = system: Staphylococcus epidermidis
[25] = system: Enterobacter cloacae 218R
Pseudomonas aeruginosa 9 = system: Pseudomonas aeruginosa 9
[26] = system: Escherichia coli ESBL 63103
[27] = system: Escherichia coli ESBL 64771
[28] = system: Pseudomonas aeruginosa PAO1 H103
[29] = system: Salmonella enterica serovar Typhimurium
[30] = system: Pseudomonas aeruginosa H1027
[31] = system: Stenotrophomonas maltophilia ATCC 13637
[32] = system: Pseudomonas aeruginosa H1030
[33] = system: Klebsiella pneumoniae ESBL 61962
Escherichia coli UB1005 = system: Escherichia coli UB1005
[34] = system: Pseudomonas aeruginosa H103
[35] = system: Staphylococcus aureus C623
[36] = system: Enterococcus faecium mic80
[37] = system: Enterococcus faecalis W61950
[38] = system: Klebsiella pneumoniae ESBL 63575
[39] = system: Pseudomonas aeruginosa 198
[40] = system: Enterococcus faecium t62764

MIC [1]: 7 µM (≈ 11.7 µg/mL)
MIC [2]: ≥ 40 µM
MIC [3]: 6.5 µM (≈ 10.9 µg/mL)
MIC [4]: 20 µM (≈ 33.5 µg/mL)
SMILES: NCCCC[C@H](NC(=O)[C@H](Cc1c[nH]c2ccccc12)NC(=O)[C@H](Cc1ccccc1)NC(=O)[C@H](CCCCN)NC(=O)[C@H](CCCCN)NC(=O)[C@@H](N)Cc1ccccc1)C(=O)N[C@@H](Cc1c[nH]c2ccccc12)C(=O)N[C@@H](Cc1ccccc1)C(=O)N[C@@H](CCCN=C(N)N)C(=O)N[C@@H](CCCN=C(N)N)C(=O)N[C@@H](Cc1ccccc1)C(=O)O [FKKFWKWFRRF]

MIC [5]: ≥ 91.8 µM
MIC (Escherichia coli W3110): ≥ 91.8 µM
MIC (Enterococcus faecalis): ≥ 91.8 µM
MIC [6]: ≥ 91.8 µM
MIC [7]: ≥ 91.8 µM
MIC [8]: ≥ 91.8 µM
MIC [1]: ≥ 91.8 µM
MIC (Staphylococcus aureus): > 91.8 µM
MIC [2]: ≥ 91.8 µM
SMILES: C[C@@H](O)[C@H](NC(=O)[C@H](CO)NC(=O)[C@H](Cc1c[nH]c2ccccc12)NC(=O)[C@H](Cc1c[nH]c2ccccc12)NC(=O)[C@H](CO)NC(=O)[C@H](Cc1cnc[nH]1)NC(=O)[C@H](Cc1c[nH]c2ccccc12)NC(=O)[C@@H](N)Cc1c[nH]c2ccccc12)C(=O)N[C@@H](Cc1c[nH]c2ccccc12)C(N)=O [WWHSWWSTW]

MIC [9]: ≥ 495 µM
MIC [10]: ≥ 74.3 µM
SMILES: CC[C@H](C)[C@H](NC(=O)[C@@H](NC(=O)[C@@H](N)CO)C(C)C)C(=O)NCC(=O)N[C@H]1CSSC[C@@H](C(=O)N[C@@H](Cc2ccccc2)C(=O)N[C@H](C(=O)N[C@@H](CCCCN)C(N)=O)C(C)C)NC(=O)[C@@H]2CCCN2C(=O)[C@H](CCCN=C(N)N)NC(=O)[C@@H]2CCCN2C(=O)[C@@H]2CCCN2C(=O)[C@H]([C@@H](C)CC)NC(=O)[C@H](CO)NC(=O)[C@H](CCCCN)NC(=O)[C@H]([C@@H](C)O)NC(=O)[C@H](Cc2c[nH]c3ccccc23)NC1=O [SVIGCWTKSIPPRPCFVK]

MIC [24]: 1.3 µM (≈ 1.88 µg/mL)
MIC [25]: ≥ 45 µM
MIC [18]: 2.84 µM (≈ 4.1 µg/mL)
MIC (Pseudomonas aeruginosa 9): 22.1 µM (≈ 32 µg/mL)
MIC [26]: 5.75 µM (≈ 8.3 µg/mL)
MIC [27]: 2.84 µM (≈ 4.1 µg/mL)
MIC [28]: 2.84 µM (≈ 4.1 µg/mL)
MIC [29]: 10.6 µM (≈ 15.3 µg/mL)
MIC [30]: 2.84 µM (≈ 4.1 µg/mL)
MIC [31]: 1.45 µM (≈ 2.1 µg/mL)
MIC [32]: 5.75 µM (≈ 8.3 µg/mL)
MIC [33]: ≥ 90 µM
MIC (Escherichia coli UB1005): 5.3 µM (≈ 7.66 µg/mL)
MIC (Candida albicans): 10.6 µM (≈ 15.3 µg/mL)
MIC [34]: ≥ 42.3 µM
MIC [35]: 2.84 µM (≈ 4.1 µg/mL)
MIC [36]: 2.84 µM (≈ 4.1 µg/mL)
MIC [37]: ≥ 45 µM
MIC [38]: 22.1 µM (≈ 32 µg/mL)
MIC [22]: 11.8 µM (≈ 17 µg/mL)
MIC [39]: 11.8 µM (≈ 17 µg/mL)
MIC [40]: 0.692 µM (≈ 1 µg/mL)
SMILES: CC[C@H](C)[C@H](NC(=O)[C@@H](N)CCCCN)C(=O)N[C@@H](Cc1c[nH]c2ccccc12)C(=O)N[C@@H](Cc1c[nH]c2ccccc12)C(=O)N[C@@H](Cc1c[nH]c2ccccc12)C(=O)N[C@@H](Cc1c[nH]c2ccccc12)C(=O)N[C@@H](CCCN=C(N)N)C(=O)N[C@@H](CCCCN)C(=O)N[C@@H](CCCN=C(N)N)C(=O)O [KIWWWWRKR]

Continued, compound first:

SMILES: CC[C@H](C)[C@H](NC(=O)[C@H](CCCCN)NC(=O)[C@H](CCCCN)NC(=O)[C@H](CC(C)C)NC(=O)[C@H](C)NC(=O)[C@H](CCCN=C(N)N)NC(=O)[C@H](CCCCN)NC(=O)CNC(=O)[C@H](CC(C)C)NC(=O)[C@H](CCCN=C(N)N)NC(=O)[C@H](CC(C)C)NC(=O)[C@H](C)NC(=O)[C@H](CC(C)C)NC(=O)CNC(=O)[C@H](CC(N)=O)NC(=O)[C@H](CC(C)C)NC(=O)[C@H](CC(C)C)NC(=O)CN)C(=O)N[C@H](C(=O)N[C@@H](CCCCN)C(=O)N[C@@H](CCCN=C(N)N)C(=O)N[C@@H](CC(C)C)C(=O)N[C@@H](CS)C(=O)N[C@@H](CCCN=C(N)N)C(=O)O)[C@@H](C)CC [GLLNGLALRLGKRALKKIIKRLCR]
MIC [11]: 1.15 µM (≈ 3.12 µg/mL)
MIC (Enterococcus sp.): 9.24 µM (≈ 25 µg/mL)
MIC [12]: 18.5 µM (≈ 50 µg/mL)
MIC [13]: 1.15 µM (≈ 3.12 µg/mL)
MIC (Staphylococcus aureus): 9.24 µM (≈ 25 µg/mL)
MIC [14]: 0.577 µM (≈ 1.56 µg/mL)
MIC [15]: 9.24 µM (≈ 25 µg/mL)
MIC [16]: 1.15 µM (≈ 3.12 µg/mL)

SMILES: CC[C@H](C)[C@H](NC(=O)[C@H](C)NC(=O)[C@H](CO)NC(=O)[C@@H](NC(=O)[C@H](C)NC(=O)[C@H](CC(N)=O)NC(=O)[C@@H](NC(=O)[C@H](C)NC(=O)[C@H](Cc1cnc[nH]1)NC(=O)[C@@H]1CCCN1C(=O)[C@@H](NC(=O)[C@H](CC(C)C)NC(=O)[C@H](CO)NC(=O)[C@H](CC(C)C)NC(=O)[C@@H](N)Cc1ccccc1)[C@@H](C)CC)[C@@H](C)CC)C(C)C)C(=O)N[C@@H](C)C(=O)N[C@@H](CCCCN)C(=O)N[C@@H](Cc1cnc[nH]1)C(=O)N[C@@H](CC(N)=O)C(N)=O [FLSLIPHAINAVSAIAKHN]
MIC [17]: 7.9 µM (≈ 15.9 µg/mL)
MIC [18]: 7.9 µM (≈ 15.9 µg/mL)
MIC [19]: 4 µM (≈ 8.06 µg/mL)
MIC (Streptococcus agalactiae): 3.9 µM (≈ 7.86 µg/mL)
MIC [20]: 7.9 µM (≈ 15.9 µg/mL)
MIC [21]: 3 µM (≈ 6.05 µg/mL)
MIC (Candida albicans): 7.9 µM (≈ 15.9 µg/mL)
MIC (Staphylococcus aureus): 15.8 µM (≈ 31.8 µg/mL)
MIC [22]: 4 µM (≈ 8.06 µg/mL)
MIC (Pseudomonas aeruginosa): 31.7 µM (≈ 63.9 µg/mL)

SMILES: CC[C@H](C)[C@H](NC(=O)[C@H](CC(C)C)NC(=O)CNC(=O)CNC(=O)[C@@H](NC(=O)[C@H](CCCCN)NC(=O)CNC(=O)[C@H](CC(C)C)NC(=O)[C@@H](NC(=O)[C@H](CC(=O)O)NC(=O)[C@@H](NC(=O)[C@H](CC(C)C)NC(=O)CN)C(C)C)C(C)C)C(C)C)C(=O)N[C@@H](CCCCN)C(=O)N[C@@H](CCCCN)C(=O)N[C@@H](CC(C)C)C(=O)N[C@@H](CC(C)C)C(=O)N1CCC[C@H]1C(N)=O [GLVDVLGKVGGLIKKLLP]
MIC [23]: ≥ 32 µM
